Laboratory results reported in US10314308B2, “Microbiocidal benzoxaboroles” (SYNGENTA PARTICIPATIONS AG, priority 2015, dated 2019).

Legend:
[1] = tested on: Monographella Nivalis(Microdochium Nivale); assay: Monographella nivalis (Microdochium nivale) / liquid culture (foot rot cereals); type: cell-based; details: PDB potato dextrose broth, 24° C., 4-5 days after application, read-out: disease control (inhibition of growth, photometrically)
Procedure: (§1) 14 Monographella Nivalis(Microdochium Nivale)/Liquid Culture (Foot Rot Cereals) Conidia of the fungus from cryogenic storage were directly mixed into nutrient broth (PDB potato dextrose broth). After placing a DMSO solution of test compound into a 96-well microtiter plate, the nutrient broth containing the fungal spores was added. The test plates were incubated at 24° C. and the inhibition of growth was determined photometrically 4-5 days after application.

Pythium Ultimum = assay: Pythium ultimum / liquid culture (seedling damping off); type: cell-based; details: Globisporangium ultimum, potato dextrose broth, 24° C., 2-3 days after application, read-out: disease control (inhibition of growth, photometrically)
[2] = tested on: Glomerella Lagenarium(Colletotrichum Ladenarium); assay: Glomerella lagenarium (Colletotrichum lagenarium) / liquid culture (anthracnose); type: cell-based; details: PDB potato dextrose broth, 24° C., 3-4 days after application, read-out: disease control (inhibition of growth, photometrically)
Procedure: as §1, with “10 Glomerella Lagenarium(Colletotrichum Ladenarium)/Liquid” for “14 Monographella Nivalis(Microdochium Nivale)/Liquid”, “(Anthracnose)” for “(Foot Rot Cereals)”, “measured” for “determined”, “3-4” for “4-5”

[3] = tested on: Mycosphaerella Graminicola(Septoria Tritici); assay: Mycosphaerella graminicola (Septoria tritici) / liquid culture (Septoria blotch); type: cell-based; details: Zymoseptoria tritici, PDB potato dextrose broth, 24° C., 4-5 days after application, read-out: disease control (inhibition of growth, photometrically)
Procedure: as §1, with “12 Mycosphaerella Graminicola(Septoria Tritici)/Liquid” for “14 Monographella Nivalis(Microdochium Nivale)/Liquid”, “(Septoria Blotch)” for “(Foot Rot Cereals)”

Gaeumannomyces Graminis = assay: Gaeumannomyces graminis / liquid culture (take-all of cereals); type: cell-based; details: PDB potato dextrose broth, 24° C., 4-5 days after application, read-out: disease control (inhibition of growth, photometrically)
Procedure: 13 Gaeumannomyces Graminis/Liquid Culture (Take-all of Cereals) Mycelial fragments of the fungus from cryogenic storage were directly mixed into nutrient broth (PDB potato dextrose broth). After placing a DMSO solution of test compound into a 96-well microtiter plate, the nutrient broth containing the fungal spores is added. The test plates were incubated at 24° C. and the inhibition of growth was determined photometrically 4-5 days after application.

[4] = tested on: Mycosphaerella Arachidis(Cercospora Arachidicola); assay: Mycosphaerella arachidis (Cercospora arachidicola) / liquid culture (early leaf spot); type: cell-based; details: PDB potato dextrose broth, 24° C., 4-5 days after application, read-out: disease control (inhibition of growth, photometrically)
Procedure: as §1, with “11 Mycosphaerella Arachidis(Cercospora Arachidicola)/Liquid” for “14 Monographella Nivalis(Microdochium Nivale)/Liquid”, “(Early Leaf Spot)” for “(Foot Rot Cereals)”

Sclerotinia Sclerotiorum = assay: Sclerotinia sclerotiorum / liquid culture (cottony rot); type: cell-based; details: PDB potato dextrose broth, 24° C., 3-4 days after application, read-out: disease control (inhibition of growth, visually)
Procedure: 17 Sclerotinia Sclerotiorum/Liquid Culture (Cottony Rot) Mycelia fragments of a newly grown liquid culture of the fungus were directly mixed into nutrient broth (PDB potato dextrose broth). After placing a (DMSO) solution of the test compounds into a microtiter plate (96-well format) the nutrient broth containing the fungal material was added. The test plates were incubated at 24° C. and the inhibition of growth was determined visually 3-4 days after application.

Fusarium Culmorum = assay: microbe, parasite or virus in culture; type: cell-based; details: read-out: disease control (inhibition of growth, photometrically)
Plasmopara Viticola = assay: whole plant or invertebrate; type: in vivo; details: foliar, read-out: disease control
[5] = tested on: Botryotinia Fuckeliana(Botrytis Cinerea); assay: Botryotinia fuckeliana (Botrytis cinerea) / liquid culture (gray mould); type: cell-based; details: Vogels broth, 24° C., 3-4 days after application, read-out: disease control (inhibition of growth, photometrically)
Procedure: as §1, with “9 Botryotinia Fuckeliana(Botrytis Cinerea)/Liquid” for “14 Monographella Nivalis(Microdochium Nivale)/Liquid”, “(Gray Mould)” for “(Foot Rot Cereals)”, “(Vogels” for “(PDB potato dextrose”, “3-4” for “4-5”

OB1OCc2cc(Cl)c(-c3cnco3)cc21 [Compound 18]
≥ 80%: inhibition at 20 ppm [1] | inhibition at 20 ppm (Pythium Ultimum) | inhibition at 20 ppm [2] | inhibition at 20 ppm [3] | inhibition at 20 ppm (Gaeumannomyces Graminis) | inhibition at 20 ppm [4] | inhibition at 20 ppm (Sclerotinia Sclerotiorum) | inhibition at 20 ppm (Fusarium Culmorum)

N#Cc1ccc(-c2cc3c(cc2Cl)COB3O)o1 [Compound 41]
≥ 80%: inhibition at 20 ppm [1] | inhibition at 20 ppm (Pythium Ultimum) | inhibition at 20 ppm [2] | inhibition at 20 ppm [3] | pest or weed control at 200 ppm (Plasmopara Viticola) | inhibition at 20 ppm (Gaeumannomyces Graminis)

CCOc1ccc(-c2cc3c(cc2F)COB3O)cn1 [Compound 64]
≥ 80%: inhibition at 20 ppm [1] | inhibition at 20 ppm (Pythium Ultimum) | pest or weed control at 200 ppm (Plasmopara Viticola)

OB1OCc2cc(Cl)c(-c3cc(Br)cs3)cc21 [Compound 46]
≥ 80%: inhibition at 20 ppm [1] | inhibition at 20 ppm (Pythium Ultimum) | inhibition at 20 ppm [2] | inhibition at 20 ppm [3] | inhibition at 20 ppm (Gaeumannomyces Graminis)

OB1OCc2cc(Cl)c(-c3ccncc3)cc21 [Compound 7]
≥ 80%: inhibition at 20 ppm (Pythium Ultimum) | pest or weed control at 200 ppm (Plasmopara Viticola)

COc1ccc(-c2cc3c(cc2F)COB3O)cn1 [Compound 76]
≥ 80%: inhibition at 20 ppm [1] | inhibition at 20 ppm (Pythium Ultimum)

COc1ncc(-c2cc3c(cc2Cl)COB3O)c(OC)n1 [Compound 69]
≥ 80%: inhibition at 20 ppm (Pythium Ultimum)

OB1OCc2cc(F)c(-c3cc4ccccc4[nH]3)cc21 [Compound 61]
≥ 80%: inhibition at 20 ppm [1] | inhibition at 20 ppm (Pythium Ultimum) | inhibition at 20 ppm [3] | pest or weed control at 200 ppm (Plasmopara Viticola) | inhibition at 20 ppm (Gaeumannomyces Graminis) | inhibition at 20 ppm [4] | inhibition at 20 ppm (Sclerotinia Sclerotiorum)

OB1OCc2cc(Cl)c(-c3cncnc3O)cc21 [Compound 19]
≥ 80%: inhibition at 20 ppm (Pythium Ultimum)

Cc1cscc1-c1cc2c(cc1Cl)COB2O [Compound 53]
≥ 80%: inhibition at 20 ppm [1] | inhibition at 20 ppm (Pythium Ultimum) | inhibition at 20 ppm [2] | inhibition at 20 ppm (Gaeumannomyces Graminis) | inhibition at 20 ppm [4]

OB1OCc2cc(Cl)c(-c3cc4ccccc4o3)cc21 [Compound 37]
≥ 80%: inhibition at 20 ppm [1] | inhibition at 20 ppm [2] | pest or weed control at 200 ppm (Plasmopara Viticola) | inhibition at 20 ppm (Gaeumannomyces Graminis)

CCn1cc(-c2cc3c(cc2F)COB3O)cn1 [Compound 60]
≥ 80%: inhibition at 20 ppm [1] | inhibition at 20 ppm (Pythium Ultimum) | inhibition at 20 ppm [2] | pest or weed control at 200 ppm (Plasmopara Viticola) | inhibition at 20 ppm (Gaeumannomyces Graminis) | inhibition at 20 ppm [4]

Cc1cc(-c2cc3c(cc2F)COB3O)c(C)s1 [Compound 80]
≥ 80%: inhibition at 20 ppm [1] | inhibition at 20 ppm (Pythium Ultimum) | inhibition at 20 ppm [2] | inhibition at 20 ppm [4]

OB1OCc2cc(F)c(-c3cnccc3C(F)(F)F)cc21 [Compound 78]
≥ 80%: inhibition at 20 ppm (Pythium Ultimum) | pest or weed control at 200 ppm (Plasmopara Viticola)

Cn1cc(-c2cc3c(cc2F)COB3O)cn1 [Compound 77]
≥ 80%: inhibition at 20 ppm (Pythium Ultimum) | inhibition at 20 ppm (Gaeumannomyces Graminis) | inhibition at 20 ppm [4]

Cn1nc(-c2cc3c(cc2F)COB3O)c2ccccc21 [Compound 48]
≥ 80%: inhibition at 20 ppm [1] | inhibition at 20 ppm (Pythium Ultimum) | pest or weed control at 200 ppm (Plasmopara Viticola) | inhibition at 20 ppm (Gaeumannomyces Graminis)

OB1OCc2cc(Cl)c(-c3cnccc3C(F)(F)F)cc21 [Compound 87]
≥ 80%: inhibition at 20 ppm [1] | inhibition at 20 ppm (Pythium Ultimum) | pest or weed control at 200 ppm (Plasmopara Viticola)

OB1OCc2cc(Cl)c(-c3cc4ccccc4s3)cc21 [Compound 47]
≥ 80%: inhibition at 20 ppm [1] | inhibition at 20 ppm (Pythium Ultimum) | inhibition at 20 ppm [3] | pest or weed control at 200 ppm (Plasmopara Viticola) | inhibition at 20 ppm (Gaeumannomyces Graminis) | inhibition at 20 ppm [4]

Cn1nccc1-c1cc2c(cc1Cl)COB2O [Compound 9]
≥ 80%: inhibition at 20 ppm (Pythium Ultimum) | pest or weed control at 200 ppm (Plasmopara Viticola)

Cc1nn(C)c(C)c1-c1cc2c(cc1F)COB2O [Compound 55]
≥ 80%: inhibition at 20 ppm (Pythium Ultimum) | pest or weed control at 200 ppm (Plasmopara Viticola)

CSc1ncc(-c2cc3c(cc2Cl)COB3O)c(C)n1 [Compound 20]
≥ 80%: inhibition at 20 ppm [1] | inhibition at 20 ppm (Pythium Ultimum) | inhibition at 20 ppm (Fusarium Culmorum)

O=Cc1csc(-c2cc3c(cc2Cl)COB3O)c1 [Compound 34]
≥ 80%: inhibition at 20 ppm [1] | inhibition at 20 ppm (Pythium Ultimum) | inhibition at 20 ppm [2] | inhibition at 20 ppm [3] | inhibition at 20 ppm (Gaeumannomyces Graminis) | inhibition at 20 ppm [4] | inhibition at 20 ppm (Fusarium Culmorum)

CCn1cc(-c2cc3c(cc2Cl)COB3O)cn1 [Compound 71]
≥ 80%: inhibition at 20 ppm [1] | inhibition at 20 ppm (Pythium Ultimum) | pest or weed control at 200 ppm (Plasmopara Viticola) | inhibition at 20 ppm [4]

OB1OCc2cc(Cl)c(-c3ccncc3Cl)cc21 [Compound 89]
≥ 80%: inhibition at 20 ppm [1] | inhibition at 20 ppm (Pythium Ultimum) | inhibition at 20 ppm [2] | inhibition at 20 ppm [3] | pest or weed control at 200 ppm (Plasmopara Viticola) | inhibition at 20 ppm [4]

Cn1cc(-c2cc3c(cc2Cl)COB3O)cn1 [Compound 86]
≥ 80%: inhibition at 20 ppm [1] | inhibition at 20 ppm (Pythium Ultimum) | inhibition at 20 ppm (Gaeumannomyces Graminis) | inhibition at 20 ppm [4]

N#Cc1csc(-c2cc3c(cc2Cl)COB3O)c1 [Compound 43]
≥ 80%: inhibition at 20 ppm [1] | inhibition at 20 ppm (Pythium Ultimum) | inhibition at 20 ppm [2] | pest or weed control at 200 ppm (Plasmopara Viticola) | inhibition at 20 ppm (Gaeumannomyces Graminis)

COc1ccc(-c2cc3c(cc2Cl)COB3O)cn1 [Compound 85]
≥ 80%: inhibition at 20 ppm [1] | inhibition at 20 ppm (Pythium Ultimum)

OB1OCc2cc(F)c(-c3cncc(C(F)(F)F)c3)cc21 [Compound 82]
≥ 80%: inhibition at 20 ppm [1] | inhibition at 20 ppm (Pythium Ultimum) | inhibition at 20 ppm [2] | inhibition at 20 ppm [3] | inhibition at 20 ppm (Gaeumannomyces Graminis) | inhibition at 20 ppm [4] | inhibition at 20 ppm (Sclerotinia Sclerotiorum)

Cn1nccc1-c1cc2c(cc1F)COB2O [Compound 10]
≥ 80%: inhibition at 20 ppm (Pythium Ultimum) | inhibition at 20 ppm [2] | inhibition at 20 ppm [3] | inhibition at 20 ppm [5] | inhibition at 20 ppm [4] | inhibition at 20 ppm (Sclerotinia Sclerotiorum) | inhibition at 20 ppm (Fusarium Culmorum)

OB1OCc2cc(Cl)c(-c3ccc(N4CCOCC4)nc3)cc21 [Compound 70]
≥ 80%: inhibition at 20 ppm [1] | inhibition at 20 ppm (Pythium Ultimum) | inhibition at 20 ppm [3] | inhibition at 20 ppm [4]

COc1ncc(-c2cc3c(cc2F)COB3O)c(OC)n1 [Compound 58]
≥ 80%: inhibition at 20 ppm [1] | inhibition at 20 ppm (Pythium Ultimum)

CON=Cc1ccc(-c2cc3c(cc2Cl)COB3O)o1 (racemic) [Compound 23, 1-[5-(5-chloro-1-hydroxy-3H-2,1-benzoxaborol-6-yl)-2-furyl]-N-methoxy-methanimine]
≥ 80%: inhibition at 20 ppm [1] | inhibition at 20 ppm (Pythium Ultimum) | inhibition at 20 ppm [2] | inhibition at 20 ppm [3] | inhibition at 20 ppm (Gaeumannomyces Graminis) | inhibition at 20 ppm [4]

Cc1nc(Nc2ccccc2)nc(C2CC2)c1-c1cc2c(cc1Cl)COB2O [Compound 24]
≥ 80%: inhibition at 20 ppm [1]

O=Cc1ccc(-c2cc3c(cc2F)COB3O)o1 [Compound 26]
≥ 80%: inhibition at 20 ppm [1] | inhibition at 20 ppm (Pythium Ultimum) | inhibition at 20 ppm [2] | inhibition at 20 ppm [3] | inhibition at 20 ppm [5] | inhibition at 20 ppm [4] | inhibition at 20 ppm (Sclerotinia Sclerotiorum) | inhibition at 20 ppm (Fusarium Culmorum)

OB1OCc2cc(F)c(-c3ccc(N4CCOCC4)nc3)cc21 [Compound 59]
≥ 80%: inhibition at 20 ppm (Pythium Ultimum)
